Test results taken from patent publication US20150080234A1, “Cell Patterning” (priority 2013, published 2015).

Legend:
[1] = tested on: ACH2 cells; experiment: virus production by ACH2 cells in micro-wells detected by WAP; assay type: cell-based; conditions: ACH2 cells stimulated vs unstimulated, all loading densities, FIG. 6(b)
Method: FIGS. 6(a)-(b) illustrate one embodiment of detection/analysis of latently infected T cells using WAP. That is, as shown, WAP can be applied to study functional characteristics, such as virus production, of cells loaded into micro-wells. ACH2 cells produce HIV virus when stimulated with the cytokine TNFα. […] These cells produce virus when stimulated with TNFα, which can be contained in the media. The target cell coated slide is incubated with the array, removed, then allowed to incubate while biological signal develops (e.g. GFP accumulation). […] The median percent infection is higher in the presence of TNFα for each ACH2 cell count. In addition to assaying viral production capability, functional characteristics of virus producing cells in the micro-wells, such as gene expression, surface marker expression, or secretion of biomolecules of interest could provide functional information about virally infected cells.

[2] = tested on: cell motility; conditions: cited from earlier work
[3] = tested on: GHOST cells; experiment: cell pattern maintenance / cell migration inhibition assay (media additives and hydrogels); assay type: cell-based
Method: One significant advantage afforded by WAP is the ability to an addressable link with stimuli with delayed signal development in cells, such as infection, proliferation, or migration. For implementation of the nano-neutralization assay, a technique for preventing pattern disruption was developed over time due to proliferation and migration of GHOST cells over the course of infection signal development. The effect of several media additives and hydrogels for the maintenance of patterns was tested.
Cell patterns were formed as described above. Arrays were imaged at 0, 24, and 48 hrs immediately after addition of 1 μM calcein AM live cell stain (Life Technologies) in PBS. Media additives were diluted directly into culture media at the indicated concentration. Cell proliferation (P) was calculated per block (4 wells per block) as the ratio of cells at time of imaging to the number of starting cells at time zero. Cell migration (M) was calculated as Nfull×P−Nwell, where Nfull is the number of cells per field of view, P is the proliferation rate, and Nwell is the number of cells per well.

[4] = target: CCR5 (Homo sapiens, UniProt P51681); conditions: lowers the effective CCR5 concentration; cited from earlier work
CCR5, sequence (P51681 whole entry): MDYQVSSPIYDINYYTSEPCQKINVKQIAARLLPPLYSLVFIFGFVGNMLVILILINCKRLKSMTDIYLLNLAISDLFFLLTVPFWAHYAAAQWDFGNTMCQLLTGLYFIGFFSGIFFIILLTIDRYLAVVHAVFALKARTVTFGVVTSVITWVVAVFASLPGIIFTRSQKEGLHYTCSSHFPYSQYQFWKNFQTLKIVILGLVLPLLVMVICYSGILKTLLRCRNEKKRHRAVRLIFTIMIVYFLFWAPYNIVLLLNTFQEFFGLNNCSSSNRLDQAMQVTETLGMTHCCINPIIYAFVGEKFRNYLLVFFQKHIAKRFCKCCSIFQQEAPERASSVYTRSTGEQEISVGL

TNFα
median percent infection of patterned cells [1]: greater median percent infection

C[C@@H](N)[C@H]1CC[C@H](C(=O)Nc2ccncc2)CC1 [Y-27632]
effect on cell motility and adhesion [2]: inhibit cell motility but not adhesion

CS(=O)(=O)c1cccc(CNc2nc(Nc3ccc4c(c3)CCC(=O)N4)ncc2C(F)(F)F)c1 [PF-573228]
individual pattern maintenance for the time required for signal development ([3]; 10 μM): resulted in individual pattern maintenance | proliferation of patterned cells (Nt/Nto per block) ([3]; FIG. 15(b), 24 or 48 hours): reduced proliferation of patterned cells | migration of patterned cells (number of cells migrating out of patterns) ([3]; FIG. 15(c), p<0.0001 Mann-Whitney U test): reduced migration of patterned cells | loss of cell patterns ([3]; added to media, 0 hr vs 24 hrs post patterning, FIG. 9(f)): prevents loss of cell patterns | effect on cell motility and adhesion [2]: inhibit cell motility but not adhesion

Cc1ccc(-c2ccc3c(c2)C=C(C(=O)Nc2ccc(C[N+](C)(C)C4CCOCC4)cc2)CCC3)cc1.[Cl-] [TAK779]
effect on HIV-1 entry [4]: slows HIV-1 entry
